The values below come from article PMC8471451 (Pharmaceuticals, 2021).

Values joined by “and” are separate entries in the source; they are usually repeats but may differ in a detail not shown here. Equal values may be shown once.

For one series, the target named is T1, human ACE2 protein (Homo sapiens, UniProt Q9BYF1).
T1 construct: purchased Sino Biological
Kind of series: Biolayer interferometry (BLI) binding assay with human ACE2. Particulars: His-tagged human ACE2 on Ni-NTA biosensor, 30 °C, 1:1 model. Background: Biolayer interferometry detects binding as a change in optical thickness at a sensor tip.

The test system of series [1] is SARS-CoV-2 spike pseudovirus. The experiment in a line: microbe, parasite or virus in culture. It is filed as cell-based. Conditions: for IC50: Severe acute respiratory syndrome coronavirus 2, read-out: IC50 (inhibition of 50% viral entry into host cells).
For another series, the system named is HEK-293T-ACE2^h cells. The experiment in a line: Cytotoxicity by MTT assay. It is filed as cell-based, human. Conditions: for CC0 (maximum nontoxic concentration): 4 h incubation; for TC50 (concentration causing 50% host cells' death): 48 h treatment. On the procedure: The cytotoxic effect of honokiol derivatives on HEK-293T-ACE2^h cells was evaluated by MTT assay. HEK-293T-ACE2^h cells were seed into 96-well plate at a density of 1×10^4 cells per well and then treated with various concentrations of compounds for either 4 or 48 h. Then 10 μL of 3-(4, 5-dimethylthiazol-2-yl)-2, 5-diphenyltetrazolium bromide (MTT) (5 mg/mL) solution was added to each well for another 4 h incubation. The supernatants were then removed, and the formed formazan crystals were dissolved in 100 μL DMSO and the plate was agitated for 10 min. Relative cell viability was assessed by measuring the absorbance at 570 nm by using a microplate reader (Infinite M200 PRO Microplate Reader, Tecan, Swiss). The survival rate of HEK-293T-ACE2^h cells was calculated using the following formula: [(ODtreated-ODblank) / (ODcontrol-ODblank)] × 100%. The 50% toxic concentration (TC50) for 48 h was calculated by the GraphPad Prism 8.0 software (La Jolla, CA, USA). The maximum nontoxic concentration (CC0) for 4 h was determined as the maximum tested concentration in which the cell viability was 100%. Data were obtained from three independent experiments.
(Tetrazolium assays rely on reduction of a dye to a coloured formazan, in cell work by metabolically active cells.)

Series [2] addresses T2, SARS-CoV-2 spike RBD protein (Severe acute respiratory syndrome coronavirus 2, UniProt P0DTC2).
T2 construct: purchased Sino Biological
It is filed as binding.

In series [3] the target is T3, SARS-CoV-2 spike RBD binding with ACE2 protein (Homo sapiens, UniProt Q9BYF1).
T3 construct: purchased Sino Biological
Kind of series: Competitive ELISA of spike RBD binding with ACE2. It is filed as biochemical. Conditions: read-out: Inhibitory rate of spike RBD-ACE2 binding. (In general: In an ELISA, binding on a coated surface is turned into a signal by an enzyme label.)

T1 sequence (Q9BYF1 18-805): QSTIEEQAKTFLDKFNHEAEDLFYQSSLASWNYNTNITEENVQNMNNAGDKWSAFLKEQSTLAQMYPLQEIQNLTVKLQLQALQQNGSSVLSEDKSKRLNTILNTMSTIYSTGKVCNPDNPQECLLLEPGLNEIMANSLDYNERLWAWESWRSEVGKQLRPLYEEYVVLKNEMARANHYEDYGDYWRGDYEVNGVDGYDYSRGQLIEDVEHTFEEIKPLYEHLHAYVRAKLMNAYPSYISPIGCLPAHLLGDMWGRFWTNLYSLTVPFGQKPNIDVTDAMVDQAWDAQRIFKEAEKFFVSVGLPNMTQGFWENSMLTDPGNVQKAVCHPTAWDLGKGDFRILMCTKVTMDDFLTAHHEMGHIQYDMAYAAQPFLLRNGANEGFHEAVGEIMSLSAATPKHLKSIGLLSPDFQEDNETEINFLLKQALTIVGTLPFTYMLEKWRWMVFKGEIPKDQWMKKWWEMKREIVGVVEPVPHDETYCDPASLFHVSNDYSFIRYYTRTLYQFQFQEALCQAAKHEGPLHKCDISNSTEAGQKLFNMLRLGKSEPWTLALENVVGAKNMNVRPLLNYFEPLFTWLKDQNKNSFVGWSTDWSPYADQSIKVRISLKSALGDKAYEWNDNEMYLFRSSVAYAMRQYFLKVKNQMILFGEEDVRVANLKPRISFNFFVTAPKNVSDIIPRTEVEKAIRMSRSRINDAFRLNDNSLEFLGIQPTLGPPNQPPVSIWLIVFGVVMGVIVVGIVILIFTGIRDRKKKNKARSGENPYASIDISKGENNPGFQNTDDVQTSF
T3 sequence (Q9BYF1 18-740): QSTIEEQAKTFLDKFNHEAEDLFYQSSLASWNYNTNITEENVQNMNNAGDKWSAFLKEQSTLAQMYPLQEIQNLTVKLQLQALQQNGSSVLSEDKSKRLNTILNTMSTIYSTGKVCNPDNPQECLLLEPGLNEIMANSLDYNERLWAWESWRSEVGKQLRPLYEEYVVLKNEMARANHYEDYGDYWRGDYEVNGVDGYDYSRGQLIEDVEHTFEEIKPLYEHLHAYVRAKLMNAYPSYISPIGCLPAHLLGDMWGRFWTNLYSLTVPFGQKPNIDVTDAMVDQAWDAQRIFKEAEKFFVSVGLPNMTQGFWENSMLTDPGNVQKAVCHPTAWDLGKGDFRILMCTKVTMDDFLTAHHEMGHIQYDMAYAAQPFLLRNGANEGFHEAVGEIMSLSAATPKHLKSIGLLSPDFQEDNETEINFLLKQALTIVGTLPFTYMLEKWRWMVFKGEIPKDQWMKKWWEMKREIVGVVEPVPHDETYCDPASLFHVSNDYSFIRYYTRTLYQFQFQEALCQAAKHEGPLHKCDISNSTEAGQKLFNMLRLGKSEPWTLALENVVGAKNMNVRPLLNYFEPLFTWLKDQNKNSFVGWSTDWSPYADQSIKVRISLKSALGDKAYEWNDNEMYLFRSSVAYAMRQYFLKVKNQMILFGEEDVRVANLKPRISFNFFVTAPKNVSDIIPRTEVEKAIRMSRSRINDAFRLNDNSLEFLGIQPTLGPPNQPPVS

For orientation: Kd means the constant that tells how readily two partners part at equilibrium. Higher therefore signals lower affinity. A word on the IC50: it is the midpoint of a concentration-inhibition curve. Turning to `C=CCc1cc(-c2cc(CC=C)c3oc(=O)n(Cc4nnc(-c5ccccc5)o4)c3c2)c2oc(=O)n(Cc3nnc(-c4ccccc4)o3)c2c1` [Compound 6a], the Kd on human ACE2 protein is 8.41 ± 0.43 µM. For the same compound, in series [1], the “SI (selectivity index, TC50/IC50)” value is over 3.42 and the 50% inhibitory concentration (IC50) was determined as 29.2 ± 0.71 µM. For the same compound, in the series with HEK-293T-ACE2^h cells, the “CC0 (maximum nontoxic concentration)” value is reported as over 100 µM and the “TC50 (concentration causing 50% host cells' death)” value is over 100 µM.

On to `C=CCc1cc(-c2cc(CC=C)c3oc(=O)n(Cc4nnc(-c5ccccc5Cl)o4)c3c2)c2oc(=O)n(Cc3nnc(-c4ccccc4Cl)o3)c2c1` [Compound 6b], for which the IC50 in series [1] was over 100 µM. In the series with HEK-293T-ACE2^h cells, the “CC0 (maximum nontoxic concentration)” value was over 100 µM and the “TC50 (concentration causing 50% host cells' death)” value is recorded as over 100 µM.

Consider `C=CCc1cc(-c2cc(CC=C)c3oc(=O)n(Cc4nnc(-c5cccc(Cl)c5)o4)c3c2)c2oc(=O)n(Cc3nnc(-c4cccc(Cl)c4)o3)c2c1` [Compound 6c], for which the IC50 in series [1] was over 100 µM. Also, in the series on HEK-293T-ACE2^h cells, the “CC0 (maximum nontoxic concentration)” value was over 100 µM and the “TC50 (concentration causing 50% host cells' death)” value was over 100 µM.

For `C=CCc1cc(-c2cc(CC=C)c3oc(=O)n(Cc4nnc(-c5ccc(Cl)cc5)o4)c3c2)c2oc(=O)n(Cc3nnc(-c4ccc(Cl)cc4)o3)c2c1` [Compound 6d], the IC50 in series [1] is over 50 µM. In the series with HEK-293T-ACE2^h cells, the “CC0 (maximum nontoxic concentration)” value stood at 50 µM.

As for `C=CCc1cc(-c2cc(CC=C)c3oc(=O)n(Cc4nnc(-c5ccccc5Br)o4)c3c2)c2oc(=O)n(Cc3nnc(-c4ccccc4Br)o3)c2c1` [Compound 6e], the IC50 in series [1] is over 100 µM. In the series with HEK-293T-ACE2^h cells, the “CC0 (maximum nontoxic concentration)” value was over 100 µM and the “TC50 (concentration causing 50% host cells' death)” value was over 100 µM.

As for `C=CCc1cc(-c2cc(CC=C)c3oc(=O)n(Cc4nnc(-c5cccc(Br)c5)o4)c3c2)c2oc(=O)n(Cc3nnc(-c4cccc(Br)c4)o3)c2c1` [Compound 6f], the IC50 in series [1] was over 50 µM. The “CC0 (maximum nontoxic concentration)” value in the series on HEK-293T-ACE2^h cells was found to be 50 µM.

As for `C=CCc1cc(-c2cc(CC=C)c3oc(=O)n(Cc4nnc(-c5ccc(Br)cc5)o4)c3c2)c2oc(=O)n(Cc3nnc(-c4ccc(Br)cc4)o3)c2c1` [Compound 6g], in series [1], the IC50 is over 50 µM. Moreover, the “CC0 (maximum nontoxic concentration)” value in the series on HEK-293T-ACE2^h cells is reported as 50 µM.

Turning to `C=CCc1cc(-c2cc(CC=C)c3oc(=O)n(Cc4nnc(-c5ccccc5F)o4)c3c2)c2oc(=O)n(Cc3nnc(-c4ccccc4F)o3)c2c1` [Compound 6h], in series [1], the “SI (selectivity index, TC50/IC50)” value was over 1.62 and the half-inhibitory concentration (IC50) was 61.6 ± 1.21 µM. In addition, the “CC0 (maximum nontoxic concentration)” value in the series on HEK-293T-ACE2^h cells is over 100 µM.

Take `C=CCc1cc(-c2cc(CC=C)c3oc(=O)n(Cc4nnc(-c5cccc(F)c5)o4)c3c2)c2oc(=O)n(Cc3nnc(-c4cccc(F)c4)o3)c2c1` [Compound 6i]: in series [1], the “Antiviral entry activity (in words)” value is reported as “complete loss of antiviral activities” and the IC50 is over 100 µM. Moreover, in the series with HEK-293T-ACE2^h cells, the “CC0 (maximum nontoxic concentration)” value is on record as over 100 µM and the “TC50 (concentration causing 50% host cells' death)” value is over 100 µM.

As to `C=CCc1cc(-c2cc(CC=C)c3oc(=O)n(Cc4nnc(-c5ccc(F)cc5)o4)c3c2)c2oc(=O)n(Cc3nnc(-c4ccc(F)cc4)o3)c2c1` [Compound 6j], in series [1], the “Antiviral entry activity (in words)” value is recorded as “complete loss of antiviral activities” and the IC50 is over 50 µM. Besides, in the series on HEK-293T-ACE2^h cells, the “CC0 (maximum nontoxic concentration)” value was 50 µM.

Take `C=CCc1cc(-c2cc(CC=C)c3oc(=O)n(Cc4nnc(-c5ccccc5C)o4)c3c2)c2oc(=O)n(Cc3nnc(-c4ccccc4C)o3)c2c1` [Compound 6k]: in series [1], the IC50 is over 100 µM. Moreover, in the series on HEK-293T-ACE2^h cells, the “CC0 (maximum nontoxic concentration)” value is listed as over 100 µM and the “TC50 (concentration causing 50% host cells' death)” value was over 100 µM.

Regarding `C=CCc1cc(-c2cc(CC=C)c3oc(=O)n(Cc4nnc(-c5cccc(C)c5)o4)c3c2)c2oc(=O)n(Cc3nnc(-c4cccc(C)c4)o3)c2c1` [Compound 6l], the IC50 in series [1] is over 100 µM. Moreover, in the series on HEK-293T-ACE2^h cells, the “CC0 (maximum nontoxic concentration)” value is given as over 100 µM and the “TC50 (concentration causing 50% host cells' death)” value is given as over 100 µM.

Consider `C=CCc1cc(-c2cc(CC=C)c3oc(=O)n(Cc4nnc(-c5ccc(C)cc5)o4)c3c2)c2oc(=O)n(Cc3nnc(-c4ccc(C)cc4)o3)c2c1` [Compound 6m], for which, in series [1], the IC50 is over 50 µM. For the same compound, the “CC0 (maximum nontoxic concentration)” value with HEK-293T-ACE2^h cells was determined as 50 µM.

As for `C=CCc1cc(-c2cc(CC=C)c3oc(=O)n(Cc4nnc(-c5ccccc5OC)o4)c3c2)c2oc(=O)n(Cc3nnc(-c4ccccc4OC)o3)c2c1` [Compound 6n], in series [1], the IC50 was over 50 µM. For the same compound, the “CC0 (maximum nontoxic concentration)” value in the series on HEK-293T-ACE2^h cells worked out at 50 µM.

On to `C=CCc1cc(-c2cc(CC=C)c3oc(=O)n(Cc4nnc(-c5cccc(OC)c5)o4)c3c2)c2oc(=O)n(Cc3nnc(-c4cccc(OC)c4)o3)c2c1` [Compound 6o], for which the IC50 in series [1] was over 100 µM. For the same compound, in the series on HEK-293T-ACE2^h cells, the “CC0 (maximum nontoxic concentration)” value was over 100 µM and the “TC50 (concentration causing 50% host cells' death)” value is recorded as over 100 µM.

For the compound `C=CCc1cc(-c2cc(CC=C)c3oc(=O)n(Cc4nnc(-c5ccc(OC)cc5)o4)c3c2)c2oc(=O)n(Cc3nnc(-c4ccc(OC)cc4)o3)c2c1` [Compound 6p], the “Interaction with spike RBD” value in series [2] was “doesn’t show interaction”. For the same compound, at human ACE2 protein, binding was characterised by a dissociation constant (Kd) of 6.87 ± 0.29 µM. For the same compound, in series [1], the “SI (selectivity index, TC50/IC50)” value was over 10.18 and the IC50 was found to be 9.82 ± 1.16 µM. For the same compound, in the series on HEK-293T-ACE2^h cells, the “CC0 (maximum nontoxic concentration)” value was over 100 µM and the “TC50 (concentration causing 50% host cells' death)” value is over 100 µM. For the same compound, in series [3] (12.5 µM), the inhibition at 12.5 µM was 26.1%. In addition, in series [3], the inhibition at 25 µM turned out to be 37.2% and the inhibition at 50 µM is 50.4%.

`C=CCc1ccc(O)c(-c2ccc(O)c(CC=C)c2)c1` [honokiol, reference compound]: at human ACE2 protein, the Kd was 17 ± 3.4 µM. For the same compound, the IC50 in series [1] was over 50 µM. In the series on HEK-293T-ACE2^h cells, the “CC0 (maximum nontoxic concentration)” value worked out at 50 µM; the “TC50 (concentration causing 50% host cells' death)” value was 48.23 µM and 48.23 ± 1.19 µM. In series [3], the inhibition at 25 µM came out at 13.8% and the inhibition at 50 µM was found to be 20.9%.
